Data taken from US20250145608A1, “KRAS DEGRADING COMPOUNDS COMPRISING ANNULATED 2-AMINO-3-CYANO THIOPHENES” (Boehringer Ingelheim Int'l GmbH Corp., priority 2021, published 2025).
Where two headings read alike, the source gives them in different places.

Key:
Assay type in all cases: cell-based
KRAS(G12D) = biological target: T1, KRAS(G12D) (Homo sapiens, UniProt P01116, G12D); experiment: HiBit degradation assay in GP5d-HiBit-KRAS(G12D) cells (18 h; DC50, Dmax)
T1 construct: introduced immediately downstream of the initiating Methionine codon of the endogenous KRAS locus; host or cells: GP5d-HiBit-KRAS(G12D), a CRISPR knock-in at the endogenous locus
Summary of the method: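 GP5d cells carry an endogenous N-terminal HiBit tag on KRAS(G12D), knocked in by CRISPR. They were seeded overnight in DMEM/10% FCS, exposed to compound for 18 h at 37° C, then lysed for HiBit luminescence, normalised to DMSO. DC50 comes from a four-parameter logistic fit; Dmax is maximal degradation as % of control.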

KRAS4B WT = biological target: T2, KRAS4B WT (Homo sapiens, UniProt P01116); experiment: HiBit KRAS4B mutant spectrum degradation assay, KRAS4B WT in GP5d cells (18 h); details: KRAS mutation G12WT
T2 construct: HiBit; expressed in transfected cells; host or cells: GP5d cells (ECACC 95090715), stably transduced with lentivirus, CMV promoter
Text: (§1) The therapeutically relevant mutant KRAS constructs (WT, G12C, G12D, G12V, G13D) were obtained by site directed mutagenesis using a KRAS4B WT cDNA construct as a template. GP5d cells (ECACC Cat. No. 95090715) were transduced with lentiviral vectors expressing mutant KRAS4B cDNA under control of a CMV promoter. Stably transduced cells were selected using a neomycin selectable marker encoded on the construct.
(§2) To assess PROTAC-mediated degradation of various KRAS mutants, GP5d cells stably transduced with KRAS4B constructs as described above were seeded at 25000 cells per well in 100 μL Dulbecco's Modified Eagle medium (Sigma cat. no. D6429) supplemented with 10% fetal calf serum into white bottom opaque 96 well plates (Perkin Elmer cat no. 5680). Plates were incubated at 37° C., 5% CO2 in a humidified incubator over night to allow the cells to adhere. […] Plates were further incubated at 37° C. for 18 hours. Following incubation, 100 μL per well Promega Nano-Glo HiBit lytic detection reagent mix (Promega Nano-Glo HiBit Lytic Detection System #N3050), prepared according to the manufacturer's instructions in the kit, were added. To allow for adequate cell lysis, plates were incubated on an orbital shaker for 15 min and further incubated 30 min at room temperature. Upon completion of cell lysis, luminescence was measured using an Envision plate reader using the Ultrasensitive Luminescence Protocol for 96 well plates. Luminescence levels were normalized by the values obtained with DMSO-treated samples and plotted as percent of DMSO control. DC50 values were computed using a four parametric logistic model and are reported in nM in Table 65 for representative example (Ex.) compounds of the invention. Dmax values represent the maximal extent of degradation observed and is stated as percent of control (% Ctrl.) treatments in Table 66 for representative example (Ex.) compounds of the invention.

KRAS4B G12D = biological target: T3, KRAS4B G12D (Homo sapiens, UniProt P01116, G12D); experiment: HiBit KRAS4B mutant spectrum degradation assay, KRAS4B G12D in GP5d cells (18 h); details: KRAS mutation G12D
T3 construct: HiBit; expressed in transfected cells; host or cells: GP5d cells (ECACC 95090715), stably transduced with lentivirus, CMV promoter
Text: as §1, §2

KRAS4B G12V = biological target: T4, KRAS4B G12V (Homo sapiens, UniProt P01116, G12V); experiment: HiBit KRAS4B mutant spectrum degradation assay, KRAS4B G12V in GP5d cells (18 h); details: KRAS mutation G12V
T4 construct: HiBit; expressed in transfected cells; host or cells: GP5d cells (ECACC 95090715), stably transduced with lentivirus, CMV promoter
Text: as §1, §2

KRAS4B G13D = biological target: T5, KRAS4B G13D (Homo sapiens, UniProt P01116, G13D); experiment: HiBit KRAS4B mutant spectrum degradation assay, KRAS4B G13D in GP5d cells (18 h); details: KRAS mutation G13D
T5 construct: HiBit; expressed in transfected cells; host or cells: GP5d cells (ECACC 95090715), stably transduced with lentivirus, CMV promoter
Text: as §1, §2

NCI-H358 cells = experiment: NCI-H358 CTG proliferation assay (120 h) (NSCLC, G12C); details: Homo sapiens
Summary of the method: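 IC50 values derive from four-parameter nonlinear regression of CellTiter-Glo viability (RLU relative to DMSO wells) after 120 h of exposure. Cells were plated in RPMI-1640 + 10% FCS at 2000 per well (assay 1) or 200 per well (assay 2). Untreated cells were measured at compound addition as T0.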

GP5d cells = experiment: GP5d cell proliferation assay (colorectal cancer, G12D), 5 days; details: Homo sapiens, 120 h
Protocol: GP5d Cell Proliferation Assay (Colorectal Cancer, G12D)
(§3) GP5d cells (ECACC 95090715) are dispensed into white bottom opaque 96 well plates at a density of 5000 cells per well in 100 μL DMEM (BioWhittaker, Cat #BE12-605F) supplemented with 10% FCS. […] Compounds (10 mM stock in DMSO) are added at logarithmic dose series using the HP Digital Dispenser D300 (Tecan), normalizing for added DMSO. For the TO time point measurement, untreated cells are analysed at the time of compound addition. Plates are incubated for 5 days, and cell viability is measured using CellTiter-Glo luminescent cell viability reagent (Promega, Cat. No G7570). Viability (stated as percent of control) is defined as relative luminescence units RLU of each well divided by the RLU of cells in DMSO controls. IC50 values were computed from relative viability values using a four parametric logistic model.

SW620 cells = experiment: SW620 cell proliferation assay (colorectal cancer, G12V), 5 days; details: Homo sapiens, SW-620, 120 h
Protocol: SW620 Cell Proliferation Assay (Colorectal Cancer, G12V)
as §3, with “SW620” for “GP5d”, “(ATCC CCL-227)” for “(ECACC 95090715)”, “plates (Perkin Elmer cat no. 5680)” for “plates”, “2000” for “5000”

T4 sequence (P01116 1-188 isoform P01116-2 G12V): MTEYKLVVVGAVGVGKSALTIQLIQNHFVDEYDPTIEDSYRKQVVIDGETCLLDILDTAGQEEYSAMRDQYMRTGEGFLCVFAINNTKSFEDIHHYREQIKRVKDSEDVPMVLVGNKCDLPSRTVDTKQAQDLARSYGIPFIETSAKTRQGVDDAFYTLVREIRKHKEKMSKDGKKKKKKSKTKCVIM
T1 sequence (P01116 1-188 isoform P01116-2 G12D): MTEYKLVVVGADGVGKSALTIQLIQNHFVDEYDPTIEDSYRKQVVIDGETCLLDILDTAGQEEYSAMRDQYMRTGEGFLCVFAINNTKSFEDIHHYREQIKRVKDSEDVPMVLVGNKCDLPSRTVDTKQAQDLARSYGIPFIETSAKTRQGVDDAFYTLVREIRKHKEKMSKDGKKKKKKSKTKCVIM
T3 sequence (P01116 1-188 isoform P01116-2 G12D): as above
T5 sequence (P01116 1-188 isoform P01116-2 G13D): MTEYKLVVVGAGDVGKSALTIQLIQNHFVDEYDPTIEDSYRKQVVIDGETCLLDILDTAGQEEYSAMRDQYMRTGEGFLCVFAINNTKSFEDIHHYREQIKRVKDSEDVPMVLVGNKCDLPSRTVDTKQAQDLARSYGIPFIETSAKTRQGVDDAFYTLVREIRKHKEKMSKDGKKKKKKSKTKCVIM
T2 sequence (P01116 1-188 isoform P01116-2): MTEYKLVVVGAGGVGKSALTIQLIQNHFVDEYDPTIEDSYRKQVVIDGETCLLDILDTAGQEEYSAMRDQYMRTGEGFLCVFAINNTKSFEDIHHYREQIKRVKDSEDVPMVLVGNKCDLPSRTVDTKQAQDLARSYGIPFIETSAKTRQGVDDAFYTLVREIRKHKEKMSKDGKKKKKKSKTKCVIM

DC50 (KRAS(G12D)): 47.7 nM | Dmax 18 h (KRAS(G12D)): 94 % Ctrl | DC50 (KRAS4B WT): 36.2 nM | Dmax at 18 h (KRAS4B WT): 95.4 % Ctrl. | DC50 (KRAS4B G12D): 48 nM | Dmax at 18 h (KRAS4B G12D): 94 % Ctrl. | DC50 (KRAS4B G12V): 98.8 nM | Dmax at 18 h (KRAS4B G12V): 90 % Ctrl. | DC50 (KRAS4B G13D): 44.9 nM | Dmax at 18 h (KRAS4B G13D): 90 % Ctrl. | IC50 (NCI-H358 cells; assay 1, read-out: H358 (assay 1) IC50): 2500 nM | IC50 (NCI-H358 cells; assay 2, read-out: H358 (assay 2) IC50): 168 nM | IC50 (GP5d cells): 141 nM | IC50 (SW620 cells): 280 nM
SMILES: Cc1ncsc1-c1ccc(CNC(=O)[C@@H]2C[C@@H](O)CN2C(=O)[C@@H](NC(=O)CCCCCN2CCCN(c3nccc(-c4noc([C@@]5(C)CCCc6sc(N)c(C#N)c65)n4)n3)[C@@H](C)C2)C(C)(C)C)cc1 [I-47]
